The values that follow come from patent US11083717B2, “Compositions and methods for drug sensitization of parasites” (The Texas A&M University System, priority 2015, dated 2021).

Data set [1] in a line: in vitro.
For data set [2], the system named is S. cerevisiae. Put plainly: in vitro. The following applies: Saccharomyces cerevisiae.
The test system of data set [3] is human fibroblast. Briefly: in vitro. To be noted: human.
Data set [4] is described as follows: HCLint in vitro intrinsic clearance, human (HLM). In kind it is in vitro ADME.
Data set [5] is described as follows: Kinetic solubility. In kind it is physicochemical.
Data set [6] has as its system Cryptosporidium parvum. As to the method: The anticryptosporidial activity of the in vitro inhibitors was assessed in the IL-12 knockout mouse model that resembles the acute human disease (Ehigiator H N, Romagnoli P, Borgelt K, Fernandez M, McNair N, Secor W E, Mead J R. 2005. Mucosal cytokine and antigen-specific responses to Cryptosporidium parvum in IL-12p40 KO mice. Parasite Immunol. 27: 17-28; Campbell L D, Stewart J N, Mead J R. 2002. Susceptibility to Cryptosporidium parvum infections in cytokine- and chemokine-receptor knockout mice. J. Parasitol. 88:1014-1016). The protocol was approved by the Institutional Animal Care and Use Committees of Emory University, the AtlantaVAMedical Center, and Brandeis University. Mice (6 to 10 per group) were inoculated with 1,000 purified CP oocysts (Iowa isolate, from cattle). Treatment by gavage began 4 h postinfection with either vehicle (5% dimethyl sulfoxide (DMSO) in canola oil), 50-100 mg/kg compound, or 2,000 mg/kg paromomycin. Compounds were given for 7 days, and mice were sacrificed on day 8 (peak infection). Parasite load was quantified by fluorescence-activated cell sorting (FACS) assays for the presence of the oocysts in the feces at days 0, 4, and 7. Fecal pellets from individual mice were routinely collected daily and homogenized in adjusted volumes of 2.5% potassium dichromate. Samples were processed individually. Aliquots (200 ul) of vortexed samples were processed over microscale sucrose gradients as previously described (Arrowood M J, Hurd M R, Mead J R. 1995. A new method for evaluating experimental cryptosporidial parasite loads using immunofluorescent flowcytometry. J. Parasitol. 81:404-409). The oocyst-containing fraction was collected, washed, and treated with monoclonal antibody (OW5O-FITC) for 20 min. Samples were adjusted to 600 ul, and a portion (100 ul) was assayed with a 102-s sampling interval using logical gating of forward/side scatter and OW5O-FITC fluorescence signal on a Becton, Dickinson FACScan flow cytometer. Flow cytometry data were evaluated by analysis of variance (KaleidaGraph (Synergy Software, Reading Pa.); Microsoft Excel (Microsoft Corporation, Redmond, Wash.)).
NZ-366 (50 mg/kg) and NZ-369 (100 mg/kg) were administered via gavage in a single daily dose to IL-12 knockout mice that were infected with 1,000 CP oocysts. Additional control groups included those treated with single daily doses of vehicle, and paromomycin (Prm) (2,000 mg/kg), by oral gavage.

Data set [7] relates to Eimeria. Briefly: Coccidiosis in broiler chicks, duodenal lesion scores. The format is in vivo. The following applies: 20 mg/bird daily by oral gavage, FIG. 7. As to the method: To determine the effects of NZ-366 and NZ-369 on coccidiosis in broiler chicks, experimental animals were divided into 4 treatment groups: Unmedicated (UNM), those receiving the experimental compounds (366 and 369); and those receiving Salinomycin (SAL).
Compounds NZ-366 and NZ-369 were administered at a dose of 20 mg/bird by oral gavage daily beginning from 11 days post-hatching. Salinomycin was administered in-feed beginning from 10 days post-hatching. Broilers were administered a 1000× dose of coccidiosis vaccine by oral gavage at 13 days post-hatching.
Lesion scores in the duodenum were lower in broiler chicks administered NZ-369 as compared to unmedicated broilers and those administered NZ-366. […] In FIG. 7, lesion scores expressed as the mean±SEM from 24 broilers per treatment.

[8] abbreviates: NZ-366 50 mg/kg, NZ-369 100 mg/kg, paromomycin 2,000 mg/kg.

Some results are limits rather than exact numbers.

The term IC50 denotes the concentration needed to halve the response being measured. Regarding `CNC(=O)C(C)c1ccc(Oc2nc3ccc(Cl)cc3s2)cc1` (stereo not shown) [NZ-369, 2-{4-[(6-chloro-1,3-benzothiazol-2-yl)oxy]phenyl}-N-methylpropanamide], the half-maximal inhibitory concentration (IC50) in data set [1] (Saccharomyces cerevisiae) and in data set [1] (human) was above 100 µM each time. In addition, the “concentrations at which not toxic, S. cerevisiae cytotoxicity testing” value in data set [2] is at least 100 µM. The “concentrations at which not toxic, human fibroblast cytotoxicity testing” value in data set [3] was at least 100 µM. For the same molecule, in data set [4], the “HCLint (mL/min/g liver), HLM” value is recorded as “HLM = 0.69 mL/min/g liver”. For the same molecule, the “Kinetic Sol.” value in data set [5] came out at 86 µM. Moreover, the “Mouse Model (Mead) DPI7” value in data set [6] (@100 mg/kg, day 7 post infection) was “DPI7 = 70%”. Besides, in data set [6] (NZ-366 50 mg/kg, NZ-369 100 mg/kg, 7 days), the “overt toxicity in the treated infected mice” value is listed as “no overt toxicity”. In addition, the “anticryptosporidial activity, fecal oocysts day 7 post infection” value in data set [6] (NZ-366 50 mg/kg, NZ-369 100 mg/kg, gavage, single daily dose, FIG. 1) is listed as “have anticryptosporidial activity”. In data set [6] (setting [8]), the “effectiveness compared with paromomycin after a single dose” value is given as “more effective than paromomycin”. Besides, the “effectiveness compared with paromomycin over the course of the study” value in data set [6] (setting [8]) is recorded as “equally as effective as paromomycin”. The “lesion scores in the duodenum vs unmedicated broilers and NZ-366” value in data set [7] was “lower”. Further, the “reduction of duodenal lesion scores compared with Salinomycin” value in data set [7] (Salinomycin in-feed) is reported as “comparable to broiler chicks administered Salinomycin”.
